The nature of data set [1]: Pharmacokinetic Determination (Rat PK). The data set is classed as in vivo. Conditions: plasma, female SD rats; for Vd: read-out: Vdss; for bioavailability: PO 10.0 mg/kg vs IV 3.0 mg/kg. The procedure: Example D Pharmacokinetic Determination
Grouping female SD rats weighing 200-300 g randomly to two groups; one group was administered with test compound at a dose of 3.0 mg/kg by intravenous injection, the other group was administered with test compound at a dose of 10.0 mg/kg by oral. The formulation for IV groups is DMSO/PEG400/150 mM glycine (pH 9) (5/10/85) and the formulation for PO groups is PEG400/PVP/Tween 80/0.5% CMC in water (9/0.5/0.5/90). After administering, blood samples of intravenous injection group were collected at time points of predose, 0.0833, 0.25, 0.5, 1, 2, 4, 8, 12 and 24 h; blood samples of oral group were collected at time points of predose, 0.25, 0.5, 1, 2, 4, 8, 12, and 24 h. Standard curve was plotted based on concentrations of the samples in a suitable range, the concentrations of test compounds in plasma samples were determined by using LC-MS/MS. Pharmacokinetic parameters were calculated according to drug concentration-time curve using a noncompartmental method by WinNonLin (Phoenix™, version 6.1) or other similar software.

The target in data set [2] is T1, ERα (Homo sapiens, UniProt P03372).
T1 construct: endogenous in cells; host or cells: MCF-7
T1 sequence (P03372 1-595): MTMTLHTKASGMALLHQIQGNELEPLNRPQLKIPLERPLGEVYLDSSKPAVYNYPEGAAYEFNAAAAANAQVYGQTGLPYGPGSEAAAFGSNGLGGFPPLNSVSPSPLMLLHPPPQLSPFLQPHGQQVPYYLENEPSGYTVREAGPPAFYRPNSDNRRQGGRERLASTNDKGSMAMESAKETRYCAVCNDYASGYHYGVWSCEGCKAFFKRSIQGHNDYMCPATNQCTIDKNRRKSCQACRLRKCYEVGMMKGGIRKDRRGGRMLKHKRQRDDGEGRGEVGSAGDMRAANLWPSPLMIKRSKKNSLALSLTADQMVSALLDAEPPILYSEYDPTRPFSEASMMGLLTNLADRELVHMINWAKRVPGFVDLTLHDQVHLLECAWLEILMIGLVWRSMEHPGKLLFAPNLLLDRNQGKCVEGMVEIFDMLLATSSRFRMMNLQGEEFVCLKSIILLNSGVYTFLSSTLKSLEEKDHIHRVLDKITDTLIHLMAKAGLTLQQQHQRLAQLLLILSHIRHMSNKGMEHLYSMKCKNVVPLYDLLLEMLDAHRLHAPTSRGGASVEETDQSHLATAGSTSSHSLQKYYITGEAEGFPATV
As to the kind of experiment: ER Degradation Determination by Western Blot. The data set is classed as cell-based. As to conditions: MCF-7 cells, 10 μM, 18-24 hours. On the procedure:
ER Degradation Determination by Western Blot
MCF-7 cells are plated at 0.3 million cells/mL (3 mL/well) in 6-well plates in experiment media and incubated at 37° C., 5% CO2 for […]. Next day, 10× solution of compounds are made in DMSO and added the solution to the cells to achieve a final concentration of 10 μM. A DMSO control is included to enable a determination of the relative efficacy of test compounds. Fulvestrant is used as a positive control for ER-alpha degradation, and 4-OH tamoxifen as a control for receptor stabilization. After incubating cells with compounds for 18-24 hours, cell lysates are prepared (2× Cell lysis buffer:100 mM Tris, pH 8, 300 mM NaCl, 2% NP40, 1% Na deoxycholate, 0.04% SDS, 2 mM EDTA) and mixed thoroughly and incubated on ice. The protein concentration is quantified using BCA kit. […] The gel was then transferred onto a nitrocellulose membrane. […] GAPDH protein was used as an internal control.
Background: A western blot detects proteins with antibodies after separation by electrophoresis.

In data set [3] the test system is MCF7. As to the kind of experiment: Breast Cancer Cell Proliferation Assay (MCF-7). The data set is classed as cell-based. Conditions: Homo sapiens, 120 h; MCF7 cells, 5 days of compound exposure, Cell Titer-Glo. The procedure:
Breast Cancer Cell Proliferation Assay (MCF-7)
MCF7 was expanded and maintained in the medium (Phenol red free DMEM/F12 (Hyclone SH30272.01) NEAA (Gibco11140-050) Na-pyruvate (Gibco 11360-070) and Re-stripped Charcoal stripped FBS (Gemini 100-119)). The cells were adjusted to a concentration of 3,000 cells per mL in the above media, and the cells were incubated (37° C., 5% CO2). The following day a 10 point, serial dilution of compounds was added to the cells at a final concentration ranging from 10-0.000005 μM for test compounds (17β-estradiol was used as a control). Additional cells were plated in 30 wells to serve as the day 1 (pretreatment) comparison. After 5 days of compound exposure, Cell Titer-Glo reagent was added to the cells and the relative luminescence units (RLUs) of each well was determined. Cell Titer-Glo was also added to 32 μL of medium without cells to obtain a background value. The plates were allowed to incubate at room temperature for 10 minutes to stabilize luminescent signal and the luminescence signal was recorded with EnSpire. The relative increase in cell number of each sample is determined as follows: (RLU sample-RLU background/RLU estrogen only treated cells-RLU background)×100=% inhibition.
(ATP-based viability assays read luminescence as a measure of living cells.)

For orientation: AUC(0-inf) means total exposure, with the tail of the curve extrapolated. Read a high AUC(0-inf) as more exposure. As a reminder, the clearance is a measure of how efficiently the substance is removed, as volume per time. Usually half-life stands for the time needed for the level to fall by half in the phase considered. The Cmax is the peak of the concentration-time curve. What is called IC50 is the concentration that gives 50% inhibition. As usually defined, the Tmax is the time at which the peak concentration occurs. One may read the melting point as the temperature of the solid-liquid transition.

Regarding `C[C@@H]1Cc2c([nH]c3ccccc23)[C@@H](c2c(F)cc(/C=C/C(=O)O)cc2F)N1C12CC(C1)C2` [Example 11A, (E)-3-(4-((1R,3R)-2-(Bicyclo[1.1.1]pentan-1-yl)-3-methyl-2,3,4,9-tetrahydro-1H-pyrido[3,4-b]indol-1-yl)-3,5-difluorophenyl)acrylic acid], in data set [1] (IV, 3.0 mg/kg), the AUC(0-inf) amounted to 96 µM·h, the clearance turned out to be 1.2 mL/min/kg, the half-life was 4.2 h and the Vd turned out to be 0.48 L/kg. For the same molecule, the bioavailability in data set [1] worked out at 88%. Further, in data set [1] (PO, 10.0 mg/kg), the AUC(0-inf) was found to be 283 µM·h, the Cmax stood at 33 µM and the half-life was 3.5 h. Besides, the ERα % degradation entry in data set [2] is “A (A = ERα % degradation ≥80%)”. Moreover, the IC50 in data set [3] was at most 0.025 µM.

`C[C@@H]1Cc2c([nH]c3ccccc23)[C@@H](c2c(F)cc(/C=C/C(=O)O)cc2F)N1CC(C)(C)F` [AZD9496, (E)-3-(3,5-Difluoro-4-((1R,3R)2-(2-fluoro-2-methylpropyl)-3-methyl-2,3,4,9-tetrahydro-1H-pyrido[3,4b]indol-1-yl)phenyl)acrylic acid, reference compound]: in data set [1] (IV, 3.0 mg/kg), the AUC(0-inf) was determined as 72 µM·h, the clearance worked out at 1.6 mL/min/kg, the half-life is 7.8 h and the Vd stood at 0.8 L/kg. Also, the bioavailability in data set [1] came out at 74%. Also, in data set [1] (PO, 10.0 mg/kg), the AUC(0-inf) was found to be 179 µM·h, the concentration peaked (Cmax) at 16.1 µM, the Tmax was found to be 4 h and the half-life was 6.4 h. For the same molecule, in data set [2], the ERα % degradation result is “A (A = ERα % degradation ≥80%)”. In addition, the IC50 in data set [3] is at most 0.025 µM.

`C[C@@H]1Cc2c([nH]c3ccc(F)cc23)[C@@H](c2c(F)cc(/C=C/C(=O)O)cc2F)N1CC(C)(C)F` [Example 21A, (E)-3-(3,5-Difluoro-4-((1R,3R)-6-fluoro-2-(2-fluoro-2-methylpropyl)-3-methyl-2,3,4,9-tetrahydro-1H-pyrido[3,4-b]indol-1-yl)phenyl)acrylic acid] displayed a melting point of 128 to 130 °C. The molecule further returned an IC50 in data set [3] of at most 0.025 µM.

For `C[C@@H]1Cc2c([nH]c3ccccc23)[C@@H](c2c(F)cc(/C=C/C(=O)O)cc2F)N1[C@H]1CCOC1` [Example 8A, (E)-3-(3,5-Difluoro-4-((1R,3R)-3-methyl-2-((S)-tetrahydrofuran-3-yl)-2,3,4,9-tetrahydro-1H-pyrido[3,4-b]indol-1-yl)phenyl)acrylic acid], in data set [1] (IV, 3.0 mg/kg), the total exposure AUC(0-inf) is 22 µM·h, the clearance stood at 5.2 mL/min/kg, the half-life was 3.2 h and the Vd was determined as 0.6 L/kg. The bioavailability in data set [1] came out at 109%. In data set [1] (PO, 10.0 mg/kg), the area under the curve AUC(0-inf) stood at 80 µM·h, the peak level (Cmax) was 24.5 µM, the Tmax stood at 0.5 h and the half-life is 2.1 h. Further, in data set [2], the ERα % degradation result was “A (A = ERα % degradation ≥80%)”. In data set [3], this molecule returned an IC50 of 0.025 to 0.25 µM.

In the case of `C[C@]12CC[C@@H]3c4ccc(O)cc4C[C@@H](CCCCCCCCC[S+]([O-])CCCC(F)(F)C(F)(F)F)[C@H]3[C@@H]1CC[C@@H]2O` (stereo partly drawn) [fulvestrant, reference compound], the ERα % degradation entry in data set [2] is “A (A = ERα % degradation ≥80%)”. Moreover, the IC50 in data set [3] is at most 0.025 µM.

Turning to `C[C@@H]1Cc2c([nH]c3ccccc23)[C@@H](c2c(F)cc(/C=C/C(=O)O)cc2F)N1CC12CC(C1)C2` [Example 5A, (E)-3-(4-((1R,3R)-2-(Bicyclo[1.1.1]pentan-1-ylmethyl)-3-methyl-2,3,4,9-tetrahydro-1H-pyrido[3,4-b]indol-1-yl)-3,5-difluorophenyl)acrylic acid], in data set [1] (IV, 3.0 mg/kg), the AUC(0-inf) amounted to 67 µM·h, the clearance came to 1.7 mL/min/kg, the half-life is 7.7 h and the Vd came to 1 L/kg. Besides, the bioavailability in data set [1] was 82%. In data set [1] (PO, 10.0 mg/kg), the AUC(0-inf) is 185 µM·h, the Cmax was found to be 10.8 µM, the Tmax was 2 h and the half-life is 8.5 h. For the same molecule, in data set [2], the ERα % degradation result is “A (A = ERα % degradation ≥80%)”. The IC50 in data set [3] is at most 0.025 µM.

For `C[C@@H]1Cc2c([nH]c3ccccc23)[C@@H](c2c(F)cc(/C=C/C(=O)O)cc2F)N1CC12CC(F)(C1)C2` [Example 14A, (E)-3-(3,5-Difluoro-4-((1R,3R)-2-((3-fluorobicyclo[1.1.1]pentan-1-yl)methyl)-3-methyl-2,3,4,9-tetrahydro-H-pyrido[3,4-b]indol-1-yl)phenyl)acrylic acid], in data set [2], the ERα % degradation entry is given as “B (B = ERα % degradation <80%)”. Moreover, the IC50 in data set [3] was 0.025 to 0.25 µM.

For the molecule `C[C@@H]1Cc2c([nH]c3ccc(O)cc23)[C@@H](c2c(F)cc(/C=C/C(=O)O)cc2F)N1CC(C)(C)F` (single isomer, unassigned) [Example 13B], in data set [2], the ERα % degradation result is reported as “B (B = ERα % degradation <80%)”. The same molecule gave a concentration for half-maximal inhibition (IC50) in data set [3] of at most 0.025 µM.

The values above are taken from patent US11065234B2, “Estrogen receptor modulators” (Recurium IP Holdings, LLC, priority 2016, dated 2021).
